According to US7595398B2, “N-(5-membered aromatic ring)-amido anti-viral compounds” (SmithKline Beecham Corporation, priority 2005, dated 2009):

System: HCV replicon I389luc-ubi-neo/NS3-3′/ET in ET (Huh-lucubineo-ET) cells; screening for HCV RNA dependent RNA polymerase
Assay: Replicon Assay (luciferase, ET cell line Huh-lucubineo-ET)
Assay type: cell-based
Settings: Hepatitis C virus; inhibition of replication relative to no compound control; test concentration of 10 μM according to the fitted equation; luciferase 48-72 hours
Outline: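 Huh-derived ET cells stably carrying an I389luc-ubi-neo/NS3-3′/ET HCV replicon with a luciferase-ubiquitin-neomycin phosphotransferase fusion and adaptive NS3-5B mutations were cultured in DMEM with 10% fetal calf serum and 250 μg/mL G418. Cells were seeded at 0.5-1.0×10^4 cells/well in 96 well plates and given compound after 24 hrs. Luciferase was read 48-72 hours later with Bright-Glo reagents, and replication inhibition was expressed relative to untreated controls.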

Row | SMILES | inhibition at 10 µM [%]
1 | O=C(Nc1ncc(Cc2ccccc2Cl)s1)[C@@H]1CCCN1C(=O)OCc1ccccc1 [Compound 5052, 2-[5-(2-Chloro-benzyl)-thiazol-2-ylcarbamoyl]-pyrrolidine-1-carboxylic acid benzyl ester] | 1.2
2 | O=C(Nc1ccc(-c2csc(NC(=O)[C@@H]3CCCN3C(=O)OCc3ccccc3)n2)cc1)c1ccc(Cl)cc1 [Compound 5036, 2-{4-[4-(4-Chloro-benzoylamino)-phenyl]-thiazol-2-ylcarbamoyl}-pyrrolidine-1-carboxylic acid benzyl ester] | 100
3 | Cc1ccc(-c2csc(NC(=O)[C@@H]3CCCN3C(=O)OCc3ccccc3)n2)cc1 [Compound 5022, 2-(4-p-Tolyl-thiazol-2-ylcarbamoyl)-pyrrolidine-1-carboxylic acid benzyl ester] | 56
4 | O=C(NCCCN1CCOCC1)c1ccc(-c2csc(NC(=O)[C@@H]3CCCN3C(=O)OCc3ccccc3)n2)cc1 [Compound 5324, 2-{4-[4-(3-Morpholin-4-yl-propylcarbamoyl)-phenyl]-thiazol-2-ylcarbamoyl}-pyrrolidine-1-carboxylic acid benzyl ester] | 100
5 | O=C(Nc1cccc(-c2cnc(NC(=O)[C@@H]3CCCN3C(=O)OCc3ccccc3)s2)c1)C1CCCC1 [Compound 5116, 2-{5-[3-(Cyclopentanecarbonyl-amino)-phenyl]-thiazol-2-ylcarbamoyl}-pyrrolidine-1-carboxylic acid benzyl ester] | 100
6 | O=C(NC1CC1)c1ccc(-c2csc(NC(=O)C3CCCN3C(=O)OCc3ccncc3)n2)cc1 (centres unmarked) [Compound 5384, 2-[4-(4-Cyclopropylcarbamoyl-phenyl)-thiazol-2-ylcarbamoyl]-pyrrolidine-1-carboxylic acid pyridin-4-ylmethyl ester] | 99.7
7 | O=C(Nc1nc(-c2cccc(N(CC3CC3)CC3CC3)c2)cs1)[C@@H]1CCCN1C(=O)OCc1ccccc1 [Compound 5383, 2-{4-[3-(Bis-cyclopropylmethyl-amino)-phenyl]-thiazol-2-ylcarbamoyl}-pyrrolidine-1-carboxylic acid benzyl ester] | 47
8 | Nc1ccc(-c2cnc(NC(=O)[C@@H]3CCCN3C(=O)OCc3ccccc3)s2)cc1 [Compound 5111, 2-[5-(4-Amino-phenyl)-thiazol-2-ylcarbamoyl]-pyrrolidine-1-carboxylic acid benzyl ester] | 40
9 | CC(C)(C)c1csc(NC(=O)[C@@H]2CCCN2C(=O)OCc2ccccc2)n1 [Compound 5360, 2-(4-tert-Butyl-thiazol-2-ylcarbamoyl)-pyrrolidine-1-carboxylic acid benzyl ester] | 54
10 | CN(C(=O)c1ccc(-c2csc(NC(=O)[C@@H]3CCCN3C(=O)OCc3ccccc3)n2)cc1)c1ccccc1 [Compound 5328, 2-{4-[4-(Methyl-phenyl-carbamoyl)-phenyl]-thiazol-2-ylcarbamoyl}-pyrrolidine-1-carboxylic acid benzyl ester] | 97.3
11 | NCc1ccc(-c2csc(NC(=O)[C@@H]3CCCN3C(=O)OCc3ccccc3)n2)cc1 [Compound 5379, 2-[4-(4-Aminomethyl-phenyl)-thiazol-2-ylcarbamoyl]-pyrrolidine-1-carboxylic acid benzyl ester] | 25
12 | O=C(Nc1nc(-c2cccc3ccccc23)cs1)[C@@H]1CCCN1C(=O)OCc1ccccc1 [Compound 5055, 2-(4-Naphthalen-1-yl-thiazol-2-ylcarbamoyl)-pyrrolidine-1-carboxylic acid benzyl ester] | 99.3
13 | O=C(Nc1ccc(-c2cnc(NC(=O)[C@@H]3CCCN3C(=O)OCc3ccccc3)s2)cc1)C1CCCC1 [Compound 5110, 2-{5-[4-(Cyclopentanecarbonyl-amino)-phenyl]-thiazol-2-ylcarbamoyl}-pyrrolidine-1-carboxylic acid benzyl ester] | 89.6
14 | O=C(Nc1ncc(Cc2ccc(Cl)cc2)s1)[C@@H]1CCCN1C(=O)OCc1ccccc1 [Compound 5063, 2-[5-(4-Chloro-benzyl)-thiazol-2-ylcarbamoyl]-pyrrolidine-1-carboxylic acid benzyl ester] | 51.7
15 | O=C(Nc1nc(-c2ccc(Cl)c(Cl)c2)cs1)[C@@H]1CCCN1C(=O)OCc1ccccc1 [Compound 5034, 2-[4-(3,4-Dichloro-phenyl)-thiazol-2-ylcarbamoyl]-pyrrolidine-1-carboxylic acid benzyl ester] | 100
16 | O=C(NC1CCCCC1)c1ccc(-c2csc(NC(=O)[C@@H]3CCCN3C(=O)OCc3ccccc3)n2)cc1 [Compound 5303, 2-[4-(4-Cyclohexylcarbamoyl-phenyl)-thiazol-2-ylcarbamoyl]-pyrrolidine-1-carboxylic acid benzyl ester] | 100

Row | SMILES | inhibition at 10 µM [%]
17 | O=C(Nc1nc(-c2ccc(C(=O)N3CCN(CCO)CC3)cc2)cs1)[C@@H]1CCCN1C(=O)OCc1ccccc1 [Compound 5377, 2-(4-{4-[4-(2-Hydroxy-ethyl)-piperazine-1-carbonyl]-phenyl}-thiazol-2-ylcarbamoyl)-pyrrolidine-1-carboxylic acid benzyl ester] | 5.71
18 | O=C(Nc1nc(Sc2nnc(-c3ccccc3)o2)cs1)[C@@H]1CCCN1C(=O)OCc1ccccc1 [Compound 5010, 2-[4-(5-Phenyl-[1,3,4]oxadiazol-2-ylsulfanyl)-thiazol-2-ylcarbamoyl]-pyrrolidine-1-carboxylic acid benzyl ester] | 6.41
19 | O=C(NC1CCNC1)c1ccc(-c2csc(NC(=O)[C@@H]3CCCN3C(=O)OCc3ccccc3)n2)cc1 (some centres unmarked) [Compound 5322, 2-{4-[4-(Pyrrolidin-3-ylcarbamoyl)-phenyl]-thiazol-2-ylcarbamoyl}-pyrrolidine-1-carboxylic acid benzyl ester] | 100
20 | O=C(Nc1nc(-c2ccc(C3CCCCC3)cc2)cs1)[C@@H]1CCCN1C(=O)OCc1ccccc1 [Compound 5024, 2-[4-(4-Cyclohexyl-phenyl)-thiazol-2-ylcarbamoyl]-pyrrolidine-1-carboxylic acid benzyl ester] | 11
21 | CC(C)CC1CC(C)(c2csc(NC(=O)[C@@H]3CCCN3C(=O)OCc3ccccc3)n2)OC1=O (stereo in doubt) [Compound 5009, 2-[4-(4-Isobutyl-2-methyl-5-oxo-tetrahydro-furan-2-yl)-thiazol-2-ylcarbamoyl]-pyrrolidine-1-carboxylic acid benzyl ester] | 63.4
22 | O=C(Nc1cccc(-c2cnc(NC(=O)[C@@H]3CCCN3C(=O)OCc3ccccc3)s2)c1)c1ccccc1 [Compound 5113, 2-[5-(3-Benzoylamino-phenyl)-thiazol-2-ylcarbamoyl]-pyrrolidine-1-carboxylic acid benzyl ester] | 99.7
23 | CN(C)c1ccc(-c2csc(NC(=O)C3CCCN3C(=O)OCc3ccccc3)n2)cc1 (centres unmarked) [Compound 5013, 2-[4-(4-Dimethylamino-phenyl)-thiazol-2-ylcarbamoyl]-pyrrolidine-1-carboxylic acid benzyl ester] | 97
24 | CS(=O)(=O)Nc1ccc(-c2csc(NC(=O)C3CCCN3C(=O)OCc3ccccc3)n2)cc1 (centres unmarked) [Compound 5004, 2-[4-(4-Methanesulfonylamino-phenyl)-thiazol-2-ylcarbamoyl]-pyrrolidine-1-carboxylic acid benzyl ester] | 99.9
25 | CC1(C)CC(c2csc(NC(=O)[C@@H]3CCCN3C(=O)OCc3ccccc3)n2)CCO1 (stereo in doubt) [Compound 5046, 2-[4-(2,2-Dimethyl-tetrahydro-pyran-4-yl)-thiazol-2-ylcarbamoyl]-pyrrolidine-1-carboxylic acid benzyl ester] | 8.29
26 | CC(C)(C)OC(=O)N1CCS[C@H]1C(=O)Nc1nc(-c2ccc(C(=O)NC3CC3)cc2)cs1 [Compound 5334, 2-[4-(4-Cyclopropylcarbamoyl-phenyl)-thiazol-2-ylcarbamoyl]-thiazolidine-3-carboxylic acid tert-butyl ester] | 99.9
27 | Cc1ccc(S(=O)(=O)Nc2ccc(-c3csc(NC(=O)[C@@H]4CCCN4C(=O)OCc4ccccc4)n3)cc2)cc1 [Compound 5005, 2-{4-[4-(Toluene-4-sulfonylamino)-phenyl]-thiazol-2-ylcarbamoyl}-pyrrolidine-1-carboxylic acid benzyl ester] | 99.8
28 | Cc1ccc(Cc2cnc(NC(=O)[C@@H]3CCCN3C(=O)OCc3ccccc3)s2)cc1Cl [Compound 5025, 2-[5-(3-Chloro-4-methyl-benzyl)-thiazol-2-ylcarbamoyl]-pyrrolidine-1-carboxylic acid benzyl ester] | 2.86
29 | O=C(Nc1nc(-c2ccc(NS(=O)(=O)C3CC3)cc2)cs1)[C@@H]1CCCN1C(=O)OCc1ccccc1 [Compound 5329, 2-[4-(4-Cyclopropanesulfonylamino-phenyl)-thiazol-2-ylcarbamoyl]-pyrrolidine-1-carboxylic acid benzyl ester] | 97
30 | O=C(NC1CNC1)c1ccc(-c2csc(NC(=O)[C@@H]3CCCN3C(=O)OCc3ccccc3)n2)cc1 [Compound 5337, 2-{4-[4-(Azetidin-3-ylcarbamoyl)-phenyl]-thiazol-2-ylcarbamoyl}-pyrrolidine-1-carboxylic acid benzyl ester] | 100
31 | O=C(Nc1cc(-c2ccccc2)nn1-c1ccccc1)[C@@H]1CCCN1C(=O)OCc1ccccc1 [Compound 5065, 2-(2,5-Diphenyl-2H-pyrazol-3-ylcarbamoyl)-pyrrolidine-1-carboxylic acid benzyl ester] | 27.2
32 | CCNC(=O)c1ccc(-c2csc(NC(=O)[C@@H]3CCCN3C(=O)OCc3ccccc3)n2)cc1 [Compound 5092, 2-[4-(4-Ethylcarbamoyl-phenyl)-thiazol-2-ylcarbamoyl]-pyrrolidine-1-carboxylic acid benzyl ester] | 100
